According to patent US20030114666A1, “Antibacterial agents” (priority 2001, published 2003):
Like-named read-outs stand apart in the source and are kept apart here.

Tests used:
[1] = test system: E. coli B90; assay: Test A antibacterial assay, standard microtitration (MIC); type: cell-based; conditions: Gram negative, E. coli B90
Experimental: (§1) Test A-Antibacterial Assay
(§2) The compounds of the present invention were tested against an assortment of Gram-negative and Gram-positive organisms using standard microtitration techniques (Cohen, et al., Antimicrob. Agents Chemother., 1985;28:766; Heifetz, et al., Antimicrob. Agents Chemother:, 1974;6:124). […]

[2] = test system: E. coli MC 4100; assay: as above; type: cell-based; conditions: Gram negative, E. coli MC 4100
Experimental: as §1, §2

[3] = test system: E. coli Tol C; assay: as above; type: cell-based; conditions: for Minimum Inhibitory Concentrations E. coli Tol C: Gram negative
Experimental: as §1, §2

[4] = test system: E. faecalis RB1; assay: as above; type: cell-based; conditions: Gram positive, E. faecalis RB1
Experimental: as §1, §2

[5] = test system: S. aureus 29213; assay: as above; type: cell-based; conditions: Gram positive, S. aureus 29213
Experimental: as §1, §2

[6] = test system: S. pyogenes C203; assay: as above; type: cell-based; conditions: Gram positive, S. pyogenes C203
Experimental: as §1, §2

[7] = molecular target: E. coli gyrase (Escherichia coli, UniProt P0AES4+P0AES6); assay: biochemical
[8] = Test E pharmacokinetic behavior in rats; type: in vivo; conditions: male, Wistar, plasma; Rat; 1 mg/kg IV infusion in D5W over 5 minutes
Experimental: (§3) Test E-Pharmacokinetic Behavior or Quinazolinediones vs. 3-Aminoquinazolinediones
(§4) The compounds of the present invention were tested for pharmacokinetic behavior against the structurally related 3-aminoquinazolinediones in rats, dogs and monkeys. The representative result of the evaluation for compound 4b is shown in Table 6 compared to a structurally similar 3-aminoquinazolinedione.
In this study, compounds were administered to male Wistar rats and were dosed at 1 mg/kgIV infusion in D5W over 5 minutes. Blood samples were drawn at 0, 0.083, 0.167, 0.25, 0.5, 1, 2, 4, 6, 8, 12, and 24 hours post dose.
(§5) Plasma from all samples were harvested following centrifugaltion and stored frozen until plasma concentrations were determined using liquid chromatography/mass spectroscopy methods. The concentration/time profile for each compound in each animal species was analyzed using non-compartmental pharmacokinetic analysis approach. In the table, clearance is defined as the volume of fluid cleared of drug from the body per unit of time. Clearance is a quantitative assessment of drug elimination. Drug elimination is the irreversible removal of drug from the body by all routes of elimination.

[9] = Test E pharmacokinetic behavior in dogs; type: in vivo; conditions: male, beagle, plasma; Dog; 5 mg/kg IV infusion over 15 minutes
Experimental: as §3, §4
Male Beagle Dogs were dosed with compound dissolved in D5W at 5 mg/kg IV Infusion over 15 minutes. Blood samples will be collected at 0, 0.167, 0.25, 0.33, 0.5, 1, 2, 4, 6, 8, 12 and 24 hours post dose.
as §5

[10] = Test E pharmacokinetic behavior in monkeys; type: in vivo, Male Cynomologous Monkeys; conditions: male, plasma; Monkey; 5 mg/kg IV infusion over 15 minutes
Experimental: as §3, §4
Male Cynomologous Monkeys were dosed with compound dissolved in D5W at 5 mg/kg IV Infusion over 15 minutes. Blood samples were collected at 0, 0.167, 0.25, 0.33, 0.5, 1, 2, 4, 6, 8, 12 and 24 hours post dose.
as §5

[11] = supercoiling of relaxed pBR322, 30 minutes at 37° C.

Chain of E. coli gyrase (P0AES4 whole entry, the tested form may be a part, one chain of several): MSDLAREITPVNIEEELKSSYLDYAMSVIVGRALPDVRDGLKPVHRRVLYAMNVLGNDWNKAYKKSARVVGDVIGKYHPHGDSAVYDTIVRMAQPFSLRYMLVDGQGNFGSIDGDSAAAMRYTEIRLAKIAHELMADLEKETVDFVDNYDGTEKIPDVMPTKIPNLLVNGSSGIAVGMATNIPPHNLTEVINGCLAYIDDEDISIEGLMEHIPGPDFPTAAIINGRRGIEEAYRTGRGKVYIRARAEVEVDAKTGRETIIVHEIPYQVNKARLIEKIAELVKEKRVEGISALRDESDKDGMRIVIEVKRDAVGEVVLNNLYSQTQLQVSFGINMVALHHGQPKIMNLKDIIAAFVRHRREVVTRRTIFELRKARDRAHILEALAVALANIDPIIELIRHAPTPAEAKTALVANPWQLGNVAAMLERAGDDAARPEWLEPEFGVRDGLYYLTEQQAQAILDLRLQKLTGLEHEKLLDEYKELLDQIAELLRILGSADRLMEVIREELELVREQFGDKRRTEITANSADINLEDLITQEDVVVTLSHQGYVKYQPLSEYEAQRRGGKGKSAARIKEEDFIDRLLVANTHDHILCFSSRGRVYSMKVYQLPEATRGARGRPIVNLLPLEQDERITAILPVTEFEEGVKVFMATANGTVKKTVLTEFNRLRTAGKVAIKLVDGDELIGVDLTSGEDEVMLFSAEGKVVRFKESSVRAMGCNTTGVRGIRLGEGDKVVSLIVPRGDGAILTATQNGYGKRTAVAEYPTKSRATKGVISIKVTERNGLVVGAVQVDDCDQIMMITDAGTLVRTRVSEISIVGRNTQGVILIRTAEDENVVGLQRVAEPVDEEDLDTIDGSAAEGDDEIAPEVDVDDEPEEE

For `CC1COc2c(N3CC[C@@H]([C@H](C)N)C3)c(F)c(N)c3c(=O)[nH]c(=O)n1c23.Cl` (stereo partly drawn) [Example 16d, 7-Amino-9-[9-(R)-3-((S)-1-aminoethyl)pyrrolidin-1-yl)-8-fluoro-3-methyl-2,3-dihydro-1-oxa-3a,5-diazaphenalene-4,6-dione Hydrochloride], the “Minimum Inhibitory Concentrations E. coli B90” value [1] was 16.0 µg/mL, the “Minimum Inhibitory Concentrations E. coli MC 4100” value [2] was greater than 64.0 µg/mL and the “Minimum Inhibitory Concentrations E. coli Tol C” value [3] was 4.0 µg/mL. For the same compound, the “Minimum Inhibitory Concentrations E. faecalis RB1” value [4] was 1.0 µg/mL, the “Minimum Inhibitory Concentrations S. aureus 29213” value [5] was 1.0 µg/mL and the “Minimum Inhibitory Concentrations S. pyogenes C203” value [6] was 0.5 µg/mL. For the same compound, the IC50 [7] was 25 µM.
For `Cc1c(N2CCC(C(N)CF)C2)c(F)cc2c(=O)[nH]c(=O)n(C3CC3)c12.Cl` (stereo not drawn) [Example 19f, 7-[3-(1-Amino-2-fluoroethyl)pyrrolidin-1-yl]-1-cyclopropyl-6-fluoro-8-methyl-1H-quinazolinedione Hydrochloride], the “Minimum Inhibitory Concentrations E. coli B90” value [1] was 0.25 µg/mL, the “Minimum Inhibitory Concentrations E. coli MC 4100” value [2] was 4.0 µg/mL and the “Minimum Inhibitory Concentrations E. coli Tol C” value [3] was 0.13 µg/mL. The “Minimum Inhibitory Concentrations E. faecalis RB1” value [4] was 0.06 µg/mL, the “Minimum Inhibitory Concentrations S. aureus 29213” value [5] was 0.13 µg/mL and the “Minimum Inhibitory Concentrations S. pyogenes C203” value [6] was 0.06 µg/mL. For the same compound, the IC50 [7, 11] was 1.8 µM.
`Cc1c(-c2csc(CN)c2)c(F)cc2c(=O)[nH]c(=O)n(C3CC3)c12.Cl` [Example 22j, 7-(5-Aminomethylthiophen-3-yl)-1-cyclopropyl-6-fluoro-8-methyl-1H-quinazoline-2,4-dione Hydrochloride] gave an MIC ([1]; Escherichia coli, read-out: Minimum Inhibitory Concentrations E. coli B90) of 1 mg/L, an MIC ([2]; Escherichia coli, MC4100, read-out: Minimum Inhibitory Concentrations E. coli MC 4100) of 8 mg/L and an MIC ([3]; Escherichia coli, read-out: Minimum Inhibitory Concentrations E. coli Tol C) of 1 mg/L. For the same compound, the MIC ([4]; Enterococcus faecalis, read-out: Minimum Inhibitory Concentrations E. faecalis RB1) was 2 mg/L, the MIC ([5]; Staphylococcus aureus, read-out: Minimum Inhibitory Concentrations S. aureus 29213) was 1 mg/L and the MIC ([6]; Streptococcus pyogenes, read-out: Minimum Inhibitory Concentrations S. pyogenes C203) was 0.25 mg/L. The IC50 [7, 11] was 1.4 µM.
Compound `Cc1c(N2CC[C@@H]([C@H](C)N)C2)c(F)cc2c(=O)[nH]c(=O)n(C3CC3)c12` [drawing 387] has a clearance [8] of 2.82 L/h/kg, a half-life [8] of 1.9 h and a clearance [9] of 0.522 L/h/kg. It also gave a half-life [9] of 6.3 h, a clearance [10] of 1.02 L/h/kg and a half-life [10] of 4.1 h.
`Cc1c(N2CC[C@@H]([C@H](C)N)C2)c(F)cc2c(=O)n(N)c(=O)n(C3CC3)c12` [reference compound] gave a clearance [8] of 3.72 L/h/kg, a half-life [8] of 2 h and a clearance [9] of 1.26 L/h/kg. It also gave a half-life [9] of 2.4 h, a clearance [10] of 1.44 L/h/kg and a half-life [10] of 2.2 h.
